The values below come from patent publication US10982293B2, “Methods for improving plant resistance to soybean cyst nematode and compositions thereof” (Monsanto Technology LLC, priority 2014, dated 2021).

Type in all cases: in vivo, Heterodera glycines
In one experiment the test system is race 2 SCN. Description: Greenhouse study: SCN cysts on roots of soybean grown from treated seed, race 2 SCN challenge. Conditions: seed treatment, 2000-3000 SCN eggs, cysts counted after 28-30 days, mean of 6-8 replications, FIG. 3. The procedure: Various soybean lines were treated with the compound 3-phenyl-5-(thiophen-2-yl)-1,2,4-oxadiazole following standard industry protocols. The structure of 3-phenyl-5-(thiophen-2-yl)-1,2,4-oxadiazole is:
(§1) Untreated seed or seed treated only with a colorant were used as standard controls. Single soybean seed were planted in 3″×3″ pots filled with field soil mixed with sand and steam sterilized. Ten days after germination seedlings were inoculated with 2000-3000 SCN eggs isolated from cultures maintained on the appropriate soybean germplasm to maintain designated race. After inoculation, soil temperatures were maintained at 28° C. with 16-hour day-length for 28-30 days. On the last day of the incubation period, individual plants were uprooted. Cysts from each plant were collected by blasting the roots with pressurized water and washing the soil while trapping the released cysts on sieves. The collected cysts from individual plants were transferred to a counting dish. The total number of cysts from individual plants was counted under a dissecting microscope. Data is reported as the number of cysts collected from an individual pot and represent the mean of 6-8 replications.
All plants were treated with ACCELERON® (Monsanto Company, St. Louis, Mo., USA) to reduce fungal disease.

Experiment [1] has as its system SCN. Description: Greenhouse trials: susceptible soybean line challenged with SCN with and without the compound (all plants with Acceleron). Conditions: presence vs absence of the compound, all plants treated with ACCELERON
The procedure:
as §1, with “3''×3''” for “3″×3″”, “replications. […] All plants were treated with […]® (Monsanto Company, St. Louis, Mo., USA) to reduce fungal disease.” for “replications.”

For experiment [2], the system named is race 1 soybean cyst nematodes. Description: Field tests: yield of treated and untreated soybean lines in race 1 SCN fields. Conditions: for yield, treated vs untreated: race 1 SCN. The procedure:
Prior to planting, seeds were treated with chemistry according to standard industry protocols. Six different untreated and treated lines were planted in eight plots. The six lines were selected based on resistance reaction to race 1 and race 3 SCN. […] The levels of resistance were determined essentially as described by Schmitt, D. P. and Shannon, G., Crop Sci., 32:275-277 (1992), according to Table 4. Soil cores were collected at emergence near the root zone of the plant. Multiple soil samples were taken, combined, and crushed into small evenly-sized particles. A sample aliquot was combined with water allowed to sit, then stirred. The sample was then poured into a funnel and processed in a soil elutriator. The sample was counted, with a final number being given as eggs per 100 cc of soil. Based on the number of eggs per 100 cc of soil, the field was classified as low to high pressure, where about 0 to about 180 eggs per 100 cc of soil was considered to be low pressure, about 180 eggs to about 1100 eggs per 100 cc of soil was considered to be medium pressure, and greater than about 1100 eggs per 100 cc of soil was considered to be high pressure. Lines were planted in four medium and four high pressure fields containing race 1 soybean cyst nematodes. The medium pressure fields contained 536 eggs per 100 cc of soil while the high pressure fields contained 1645 eggs per 100 cc of soil. Yield was determined at harvest. The lines derived from Peking germplasm provided protection against race 1 SCN while the lines derived from PI88788 germplasm provided protection against race 3 SCN.

Experiment [3] deals with SCN. Description: Field trials (43): yield of treated PI88788-derived soybean lines under moderate to high nematode pressure. Conditions: seed treatment 0.50 mg AI/seed with Fungicide + Insecticide (Base 2); adjusted to 13% moisture. The text has this: Eleven different untreated and treated lines were planted in a total of 43 separate field trials with a single variety per location. The eleven lines were selected based on their resistance reactions to race 3 SCN. The eleven lines were developed from PI88788 source germplasm and display either moderate resistance or resistance to race 3 SCN. 3-Phenyl-5-(thiophen-2-yl)-1,2,4-oxadiazole was combined with commercial fungicides and insecticides in a tank slurry mix with colorant, polymer, and water at the recommended rates and allowed to mix thoroughly. Using a Gustafson continuous batch seed coater the seed batch was loaded, the treatment slurry was injected and the mixture was allowed to tumble for 35-40 seconds before being ejected into a paper storage bag. […] Sub-samples (˜ 1 pint of soil) were taken from each composite sample and placed in a plastic bag, with appropriate handling to ensure viability of nematodes, and sent to a lab for nematode quantification. […] Quantitative in-season nematode sampling using root and soil samples was conducted eight weeks after planting for trials. […] Samples were sent to a lab for nematode quantification. […] The data were calculated to represent bushels per acre by taking the grain weight over the square footage of each plot and adjusting to 13% moisture.

On to `c1ccc(-c2noc(-c3cccs3)n2)cc1` [3-phenyl-5-(thiophen-2-yl)-1,2,4-oxadiazole], for which, in the experiment on race 2 SCN, the “resistance to race 2 SCN (number of SCN cysts on soybean roots)” value is recorded as “enhances resistance to race 2 SCN”. Also, in the experiment on SCN [1], the SCN cyst counts entry is given as “lower SCN cyst counts”. For the same molecule, the “yield, treated vs untreated” value in experiment [2] (high pressure field, 1645 eggs per 100 cc soil, Peking-moderately resistant (Line 2) and PI88788-moderately resistant (Line 5), FIG. 6) is “unexpected statistically higher yield”; in experiment [2] (high pressure field, 1645 eggs per 100 cc soil, Peking-resistant (Line 3), PI88788-sensitive (Line 4), PI88788-resistant (Line 6)) it was “no statistical difference”; in experiment [2] (high pressure field, 1645 eggs per 100 cc soil, Peking-sensitive line (Line 1)) it was “statistically higher yield than untreated”; in experiment [2] (medium pressure field, 536 eggs per 100 cc soil, Peking or PI88788 sensitive, moderately resistant and resistant lines, FIG. 5) it was “No statistical difference in yield”. In experiment [2] (high pressure field, average of the two moderately resistant lines), the “yield advantage compared to untreated” value was determined as 5.8 bushel per acre. Besides, the “yield in field tests (legend of FIG. 6)” value in experiment [2] (high race 1 SCN pressure, about 1645 SCN eggs/100 cc soil) is “increase in yield”. Besides, the “yield in field tests (legend of FIG. 5)” value in experiment [2] (low race 1 SCN pressure, about 536 SCN eggs/100 cc soil) is “increase in yield”. For the same molecule, the “Average Yield” value with SCN [3] was 55.7 BU/A.
